Assay results: US7514251B2, “O-methyltransferases of tetrahydrobenzylisoquinoline alkaloid biosynthesis in Papaver somniferum” (priority 2003, dated 2009)
Marks after values point to notes of the source that are not given here.

target: T1, PSOMT2 ((R,S)-norcoclaurine 6-O-methyltransferase) (Papaver somniferum, UniProt Q6WUC1); assay: Radioassay of recombinant PSOMT2 with [methyl-3H]-AdoMet (substrate specificity, kinetics, pH and temperature optima); type: biochemical; conditions: 100% activity = 2.0 pmoles/sec/mg total protein; radioassay
T1 construct: The full-length cDNA generated by RT-PCR was ligated into pFastBac HTa; His6 (N); made in house; host or cells: Spodoptera frugiperda Sf9 (baculovirus, pFastBac HTa)
T1 sequence (Q6WUC1 1-346): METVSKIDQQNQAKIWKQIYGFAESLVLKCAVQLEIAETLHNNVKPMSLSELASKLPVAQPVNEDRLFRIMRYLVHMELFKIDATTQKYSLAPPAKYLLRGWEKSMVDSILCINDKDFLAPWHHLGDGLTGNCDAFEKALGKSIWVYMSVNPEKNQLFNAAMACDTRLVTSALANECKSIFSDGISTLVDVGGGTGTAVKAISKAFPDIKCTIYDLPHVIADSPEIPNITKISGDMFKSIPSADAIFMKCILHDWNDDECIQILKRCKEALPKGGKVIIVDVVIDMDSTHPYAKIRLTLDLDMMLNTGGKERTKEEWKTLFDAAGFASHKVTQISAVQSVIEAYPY
From the text: (§1) Heterologous Expression and Enzyme Purification—The full-length cDNA generated by RT-PCR was ligated into pFastBac HTa that had been digested with restriction endonucleases BamHI and NotI. The recombinant plasmid was transposed into baculovirus DNA in the Escherichia coli strain DH10BAC (Life Technologies) and then transfected into Spodoptera frugiperda Sf9 cells according to the manufacturer's instructions. The insect cells were propagated and the recombinant virus was amplified according to (16,17). INSECT-XPRESS serum-free medium (Bio Whittaker) was used in the enzyme expression experiments.
(§2) After infection of 20 ml suspension grown insect cells had proceded for 3-4 days at 28° C. and 130 rpm, the cells were removed by centrifugation under sterile conditions at 900× g for 5 min at 4° C. All subsequent steps were performed at 4° C. The pellet was discarded and to the medium was added 0.73 g NaCl, 2.5 ml glycerol and 50 μl […]-mercaptoethanol. The pH was adjusted to 7.0 with 1.0 M NaOH. The His-tagged O-methyltransferase was then purified by affinity chromatography using a cobalt resin (Talon, Clontech) according to the manufacturer's instructions.
(§3) Enzyme assay and product identification: The O-methylation reactions catalysed by the two O-methyltransferases were assayed at least two times in duplicate according to Rüffer et al. (1983a; 1983b) as follows. Substrate (25 nmol), [methyl-3H]-AdoMet (20,000 dpm, 0.4 fmol), AdoMet (10 nmol) Tris/HC1 buffer pH 8.0 (10 μmol), ascorbate (5 μmol) and 5-10 μg of enzyme were incubated in a total volume of 150 μl at 35° C. for 5-60 min. The enzymic reaction was terminated by addition of 200 μl ethylacetate. The organic phase ([…]) was added to 3 ml high flash point liquid scintillation cocktail (Packard) and the radioactivity quantified with a Beckman LS6000TA liquid scintillation counter.
(§4) General Methods—Total RNA was isolated and RNA gels were run and blotted as described previously (20). Genomic DNA was isolated and DNA gels were run and blotted according to (21). cDNA clones were labeled by PCR labeling with [[…]-^32P]dATP. Hybridized RNA on RNA gel blots and DNA on DNA gel blots were visualized with a STORM phosphor imager (Molecular Dynamics). The entire nucleotide sequence on both DNA strands of the full-length clone was determined by dideoxy cycle sequencing using internal DNA sequences for the design of deoxyoligonucleotides as sequencing primers. Saturation curves and double reciprocal plots were constructed with the Fig. P program Version 2.7 (Biosoft, Cambridge, UK). The influence of pH on enzyme activity was monitored in sodium citrate (pH 4-6), sodium phosphate (pH 6-7.0) and Tris-HCl (pH 7.0-9), glycine/NaOH (pH 9-10.5) buffered solutions.

Row | SMILES | Substrate specificity, relative activity of PSOMT2
1 | Oc1ccccc1O [Catechol] | 0%
2 | COc1ccc(C(=O)O)cc1O [Isovanillic acid] | 0%
3 | O=c1c(O)c(-c2ccc(O)cc2O)oc2cc(O)cc(O)c12 [Morin] | 0%
4 | COc1ccc2c(c1)CCN[C@@H]2Cc1ccc(OC)c(O)c1 [(R)-7-Dehydroxy-norreticuline] | 0%
5 | COc1ccccc1O [Guaiacol] | 0%
6 | COc1ccc(C[C@H]2c3cc(O)c(O)cc3CCN2C)cc1O [(S)-4′-O-Methyllaudanosoline] | 0%
7 | O=c1c(O)c(-c2ccc(O)c(O)c2)oc2cc(O)cc(O)c12 [Quercetin] | 0%
8 | COc1ccc(C[C@@H]2NCCc3cc(OC)c(O)cc32)cc1O [(S)-Norreticuline] | 0%
9 | COc1cc2c(cc1O)[C@H](Cc1ccc(OC)c(OC)c1)N(C)CC2 (racemic) [(R,S)-Codamine] | 0%
10 | O=c1ccc2cc(O)c(O)cc2o1 [Esculetin] | 0%
11 | COc1cc2c(cc1O)[C@H](Cc1ccc(O)cc1)NCC2 [(S)-Coclaurine] | 0%
12 | COc1ccc2c(c1)CCN[C@H]2Cc1ccc(OC)c(O)c1 [(S)-7-Dehydroxy-norreticuline] | 0%
13 | COc1cc2c(cc1O)C(Cc1ccc(O)c(O)c1)N(C)CC2 (racemic) [(R,S)-6-O-Methyllaudanosoline] | 0%
14 | NCCc1ccc(O)c(O)c1 [Dopamine] | 0%
15 | COc1cc2c(cc1O)[C@@H]1Cc3ccc(OC)c(O)c3CN1CC2 [(S)-Scoulerine] | 0%
16 | COc1cc(CC2NCCc3cc(OC)c(O)cc32)ccc1O (racemic) [(R,S)-Nororientaline] | 0%
17 | COc1ccc(CC2c3cc(OC)c(OC)cc3CCN2C)cc1O (racemic) [(R,S)-Laudanidine] | 0%
18 | COc1cc2c(cc1O)C(Cc1ccc(O)cc1)N(C)CC2 (racemic) [(R,S)-N-Methylcoclaurine] | 0%
19 | COc1cc2c(cc1O)C[C@H]1c3cc(O)c(OC)cc3CCN1C2 [(S)-Coreximine] | 0%
20 | Oc1ccc(CC2NCCc3cc(O)c(O)cc32)cc1 (racemic) [(R,S)-Norcoclaurine] | 100^a %
21 | COc1c(-c2ccc(O)c(O)c2)oc2cc(O)cc(O)c2c1=O [Quercetin-3-methylether] | 0%
22 | COc1cc(C(=O)O)ccc1O [Vanillic acid] | 0%
23 | COc1cc2c(cc1O)CCNC2Cc1ccc(O)cc1 (racemic) [(R,S)-Isococlaurine] | 0%
24 | O=C(O)/C=C/c1ccc(O)c(O)c1 [Caffeic acid] | 0%
25 | CN1CC[C@]23c4c5ccc(O)c4O[C@H]2[C@@H](O)C=C[C@H]3[C@H]1C5 [Morphine] | 0%
26 | COc1cc(O)c2c(=O)c(O)c(-c3ccc(O)c(O)c3)oc2c1 [Quercetin-7-methylether] | 0%
27 | O=C(O)c1ccc(O)c(O)c1 [Protocatechuic acid] | 0%
28 | COc1ccc(C[C@H]2NCCc3cc(OC)c(O)cc32)cc1O [(R)-Norreticuline] | 0%
29 | COc1ccc(CC2NCCc3cc(OC)c(O)cc32)cc1 (racemic) [(R,S)-4′-O-methylcoclaurine] | 0%
30 | COC1=C[C@]23CCN(C)[C@H](Cc4ccc(OC)c(O)c42)C3=CC1=O [Salutaridine] | 0%

same assay, conditions: PSOMT2

Row | SMILES | Vmax Substrate | kcat Substrate
31 | Oc1ccc(CC2NCCc3cc(O)c(O)cc32)cc1 (racemic) [(R,S)-Norcoclaurine] | 5 pmol/s | 0.08 s⁻¹

same assay, conditions: PSOMT2; co-substrate AdoMet with the named substrate; read-out: Km AdoMet

Row | SMILES | Km
32 | Oc1ccc(CC2NCCc3cc(O)c(O)cc32)cc1 (racemic) [(R,S)-Norcoclaurine] | 100 µM

same assay, conditions: PSOMT2; read-out: Km Substrate

Row | SMILES | Km
33 | Oc1ccc(CC2NCCc3cc(O)c(O)cc32)cc1 (racemic) [(R,S)-Norcoclaurine] | 10 µM

same assay, conditions: PSOMT2; wide pH range

Row | SMILES | pH range of methylation
34 | Oc1ccc(CC2NCCc3cc(O)c(O)cc32)cc1 (racemic) [(R,S)-Norcoclaurine] | 6.0-9.0

same assay, conditions: one of forty substrates tested

Row | SMILES | methylated by PSOMT2 (radioassay, in words)
35 | Oc1ccc(CC2NCCc3cc(O)c(O)cc32)cc1 (racemic) [(R,S)-Norcoclaurine] | methylating

target: T2, PSOMT1 ((R,S)-reticuline 7-O-methyltransferase) (Papaver somniferum, UniProt Q6WUC2); assay: not given; type: biochemical; conditions: not given
T2 construct: The full-length cDNA generated by RT-PCR was ligated into pFastBac HTa; His6 (N); made in house; host or cells: Spodoptera frugiperda Sf9 (baculovirus, pFastBac HTa)
From the text: as §1, §2, §3, §4

T2 sequence (Q6WUC2 whole entry): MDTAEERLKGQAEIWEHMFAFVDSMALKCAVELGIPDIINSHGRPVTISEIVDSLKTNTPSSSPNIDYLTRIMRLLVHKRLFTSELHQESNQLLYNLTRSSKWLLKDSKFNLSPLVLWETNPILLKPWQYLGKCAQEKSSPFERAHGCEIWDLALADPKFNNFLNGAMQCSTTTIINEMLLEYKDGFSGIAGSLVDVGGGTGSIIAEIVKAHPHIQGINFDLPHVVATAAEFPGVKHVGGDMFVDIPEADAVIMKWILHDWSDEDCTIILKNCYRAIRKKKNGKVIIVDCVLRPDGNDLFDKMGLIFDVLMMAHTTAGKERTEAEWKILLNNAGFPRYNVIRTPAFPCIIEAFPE

Row | SMILES | Substrate specificity, relative activity of PSOMT1
36 | NCCc1ccc(O)c(O)c1 [Dopamine] | 0%

same assay, conditions: 100% activity = 1.5 pmoles/sec/mg total protein; radioassay

Row | SMILES | Substrate specificity, relative activity of PSOMT1
37 | Oc1ccccc1O [Catechol] | 0%
38 | COc1ccc(C(=O)O)cc1O [Isovanillic acid] | 40%
39 | O=c1c(O)c(-c2ccc(O)cc2O)oc2cc(O)cc(O)c12 [Morin] | 0%
40 | COc1ccc2c(c1)CCN[C@@H]2Cc1ccc(OC)c(O)c1 [(R)-7-Dehydroxy-norreticuline] | 0%
41 | COc1ccccc1O [Guaiacol] | 242%
42 | COc1ccc(C[C@H]2c3cc(O)c(O)cc3CCN2C)cc1O [(S)-4′-O-Methyllaudanosoline] | 0%
43 | O=c1c(O)c(-c2ccc(O)c(O)c2)oc2cc(O)cc(O)c12 [Quercetin] | 0%
44 | COc1ccc(C[C@@H]2NCCc3cc(OC)c(O)cc32)cc1O [(S)-Norreticuline] | 0%
45 | COc1cc2c(cc1O)[C@H](Cc1ccc(OC)c(OC)c1)N(C)CC2 (racemic) [(R,S)-Codamine] | 0%
46 | O=c1ccc2cc(O)c(O)cc2o1 [Esculetin] | 0%
47 | COc1cc2c(cc1O)[C@H](Cc1ccc(O)cc1)NCC2 [(S)-Coclaurine] | 0%
48 | COc1ccc2c(c1)CCN[C@H]2Cc1ccc(OC)c(O)c1 [(S)-7-Dehydroxy-norreticuline] | 0%
49 | COc1cc2c(cc1O)C(Cc1ccc(O)c(O)c1)N(C)CC2 (racemic) [(R,S)-6-O-Methyllaudanosoline] | 0%
50 | COc1cc2c(cc1O)[C@@H]1Cc3ccc(OC)c(O)c3CN1CC2 [(S)-Scoulerine] | 0%
51 | COc1cc(CC2NCCc3cc(OC)c(O)cc32)ccc1O (racemic) [(R,S)-Nororientaline] | 0%
52 | COc1ccc(CC2c3cc(OC)c(OC)cc3CCN2C)cc1O (racemic) [(R,S)-Laudanidine] | 0%
53 | COc1cc2c(cc1O)C(Cc1ccc(O)cc1)N(C)CC2 (racemic) [(R,S)-N-Methylcoclaurine] | 0%
54 | COc1cc2c(cc1O)C[C@H]1c3cc(O)c(OC)cc3CCN1C2 [(S)-Coreximine] | 0%
55 | Oc1ccc(CC2NCCc3cc(O)c(O)cc32)cc1 (racemic) [(R,S)-Norcoclaurine] | 0%
56 | COc1c(-c2ccc(O)c(O)c2)oc2cc(O)cc(O)c2c1=O [Quercetin-3-methylether] | 0%
57 | COc1cc(C(=O)O)ccc1O [Vanillic acid] | 0%
58 | COc1cc2c(cc1O)CCNC2Cc1ccc(O)cc1 (racemic) [(R,S)-Isococlaurine] | 0%
59 | O=C(O)/C=C/c1ccc(O)c(O)c1 [Caffeic acid] | 0%
60 | CN1CC[C@]23c4c5ccc(O)c4O[C@H]2[C@@H](O)C=C[C@H]3[C@H]1C5 [Morphine] | 0%
61 | COc1cc(O)c2c(=O)c(O)c(-c3ccc(O)c(O)c3)oc2c1 [Quercetin-7-methylether] | 0%
62 | O=C(O)c1ccc(O)c(O)c1 [Protocatechuic acid] | 0%
63 | COc1ccc(C[C@H]2NCCc3cc(OC)c(O)cc32)cc1O [(R)-Norreticuline] | 0%
64 | COc1ccc(CC2NCCc3cc(OC)c(O)cc32)cc1 (racemic) [(R,S)-4′-O-methylcoclaurine] | 0%
65 | COC1=C[C@]23CCN(C)[C@H](Cc4ccc(OC)c(O)c42)C3=CC1=O [Salutaridine] | 0%

same assay, conditions: PSOMT1

Row | SMILES | Vmax Substrate | kcat Substrate | pH optimum of methylation | ratio kcat/Km | kcat/Km ratio relative to the values determined for reticuline | temperature optimum
66 | COc1ccc(C(=O)O)cc1O [Isovanillic acid] | 1 pmol/s | 0.02 s⁻¹ | 7.5 | 1210 M⁻¹ s⁻¹ |  | 
67 | COc1ccccc1O [Guaiacol] | 6 pmol/s | 0.1 s⁻¹ | 8.0 | 5870 M⁻¹ s⁻¹ | 135% | 37 °C

same assay, conditions: one of forty substrates tested

Row | SMILES | methylated by PSOMT1 (radioassay, in words)
68 | COc1ccc(C(=O)O)cc1O [Isovanillic acid] | methylates
69 | COc1ccccc1O [Guaiacol] | methylates

same assay, conditions: read-out: Km Substrate; PSOMT1

Row | SMILES | Km
70 | COc1ccc(C(=O)O)cc1O [Isovanillic acid] | 14 µM
71 | COc1ccccc1O [Guaiacol] | 17 µM
